Results: US12415785B2, “Compound modulators of sting” (CTXT PTY LTD, priority 2019, dated 2025)
Like-named read-outs stand apart in the source and are kept apart here.

How the values were obtained:
[1] = target: T1, human STING (WT) (Homo sapiens (Human), UniProt Q86WV6, H232R); test: Differential scanning fluorimetry (DSF), huSTING (WT); format: binding; conditions: read-out: DSF huSTING (WT) ΔTm (° C.)
How it was run: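 Recombinant His-TEV-tagged human STING allelic variants expressed in E. coli and purified by IMAC. Thermal unfolding followed by dye fluorescence (excitation 490 nm, emission 570 nm) from 20° C. to 100° C. in 0.5° C. steps, in triplicate, with and without ligand; Tm taken from the transition inflection point.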

[2] = target: T1, human STING (WT); test: Surface plasmon resonance (SPR), STING (WT); format: binding; conditions: biotinylated STING on streptavidin chip, 8° C.
Experimental: Biophysical experiments were performed with three different recombinant human STING protein variants designated according to allelic nomenclature of Yi et al., (2013). Codon optimized DNA sequences (for expression in Escherichia coli) encoding amino acid residues 149 to 345 (Swiss Prot Q86WV6) of human STING (WT), human STING (HAQ) and human STING (R232H) were synthesised by GenScript USA Inc (Piscataway, New Jersey, USA). These were ligated into a modified pET43a E. coli expression vector designed to encode N-terminal His tag followed by tobacco etch virus protease (TEV) cleavage site and a STING gene sequence. The resulting protein sequences for the three allelic variants are listed below:
Binding interactions of ligands with STING proteins were quantified using Surface Plasmon Resonance (SPR) with a minimally biotinylated STING protein immobilized on a streptavidin chip surface. […] Minimal biotinylation of purified huSTING proteins was performed using a previously described methodology (Chhabra 2012). Briefly, approximately 20 nmol of recombinant STING protein in 1×TBS buffer (25 mM Tris-HCl, pH 7.5, 150 mM NaCl, 5 mM DTT) was mixed with of EZ-Link™ Sulfo-NHS-LC-LC-Biotin (Thermofisher Scientific, cat #21338) at a molar ratio of 1 to 0.6 and incubated on ice for 2 hours. To remove any unreacted biotin reagent, protein/biotin mixture was passed through a Superdex 75 (10/300 GL) column equilibrated with 10 mM HEPES, pH7.4, 150 mM NaCl, 5 mM DTT, 5%[v/v] glycerol. A protein peak containing biotinylated huSTING protein was collected and stored in aliquots at −80° C.
Streptavidin was simultaneously immobilized in all four channels of a CM5 sensor chip docked in a Biacore instrument (either Biacore S200 or Biacore T200, GE Healthcare) as described previously (Zender 2013). Minimally biotinylated STING protein was captured onto a streptavidin coated chip surface at 8° C. in SPR binding buffer (50 mM HEPES, pH 7.4, 150 mM NaCl, 2%[v/v] DMSO) by gradually injecting in a single channel at a constant flow-rate of 2 μL/min until desired capture level was achieved, typically 3000 to 7000 RU (1 RU=1 pg/mm^2).
All binding experiments were performed at 8° C. in SPR binding buffer. To determine binding affinity, compound interaction with immobilized STING protein was analysed using dose-response experiments. Fresh 10 mM DMSO solutions of compound were diluted directly into SPR binding buffer typically to a concentration of 50 μM and then further diluted 2-fold or 3-fold aiming for either a 5- or 7-point concentration series range. Each ligand concentration series was injected at a constant flow rate of 60 μL/min with a 90 second association and a 180 second dissociation time. These were modified for compounds with longer residence times, so that curves could reach steady-state, or so that compound would be fully dissociated before the subsequent injection.
Scrubber 2 (www.biologic.com.au) was utilized for data processing, where signals were referenced against the blank surface (streptavidin+D-biotin) and further corrected for DMSO refractive index change and then “double-referenced” using a buffer-blank injection (Papalia 2006). Responses were fitted to either a 1:1 steady-state affinity model or a 1:1 kinetic model (that included a mass-transport component), available within Scrubber.

[3] = 2 μM protein, compound 100 μM, Tm with ligand minus Tm of protein alone (1% DMSO)

T1 sequence (Q86WV6 other isoform, or with tags, fused parts or gaps, stated change not applied): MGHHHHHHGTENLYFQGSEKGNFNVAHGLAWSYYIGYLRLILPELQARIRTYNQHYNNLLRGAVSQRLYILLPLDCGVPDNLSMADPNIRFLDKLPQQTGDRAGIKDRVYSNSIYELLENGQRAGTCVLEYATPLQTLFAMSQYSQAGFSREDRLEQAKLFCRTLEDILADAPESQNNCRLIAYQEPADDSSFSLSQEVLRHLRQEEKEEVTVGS

SMILES | ΔTm at 100 µM [1, 3] | Kd [2] | ΔTm at 100 µM [1]
COc1c(C(N)=O)ccc2c1nc(-c1ccc(Cl)cc1-c1cn[nH]n1)n2CCn1c(-c2ccc(Cl)cc2-c2cn[nH]n2)nc2c(OC)c(C(N)=O)ccc21 [Example 24, 1,1′-(Ethane-1,2-diyl)bis(2-(4-chloro-2-(2H-1,2,3-triazol-4-yl)phenyl)-4-methoxy-1H-benzo[d]imidazole-5-carboxamide)] | -3.16 °C | 102 µM | 
NC(=O)c1ccc2c(c1)nc(-c1ccccc1C(=O)O)n2CCn1c(-c2ccccc2C(=O)O)nc2cc(C(N)=O)ccc21 [Example 2, 2,2′-(Ethane-1,2-diylbis(5-carbamoyl-1H-benzo[d]imidazole-1,2-diyl))dibenzoic acid] | -6.94 °C | 80 µM | 
COc1c(C(N)=O)ccc2c1nc(-c1c(F)cc(Cl)cc1-c1nn[nH]n1)n2CCn1c(-c2c(F)cc(Cl)cc2-c2nn[nH]n2)nc2c(OC)c(C(N)=O)ccc21 [Example 46, 1,1′-(Ethane-1,2-diyl)bis(2-(4-chloro-2-fluoro-6-(2H-tetrazol-5-yl)phenyl)-4-methoxy-1H-benzo[d]imidazole-5-carboxamide)] | 14.4 °C | 0.413 µM | 
COc1c(C(N)=O)ccc2c1nc(-c1c(F)cccc1-c1nn[nH]n1)n2CCn1c(-c2c(F)cccc2-c2nn[nH]n2)nc2c(OC)c(C(N)=O)ccc21 [Example 48, 1,1′-(Ethane-1,2-diyl)bis(2-(2-fluoro-6-(2H-tetrazol-5-yl)phenyl)-4-methoxy-1H-benzo[d]imidazole-5-carboxamide)] | 11.8 °C | 0.512 µM | 
CCc1ccc(-c2nc3c(OC)c(C(N)=O)ccc3n2CCn2c(-c3ccc(CC)cc3C(=O)O)nc3c(OC)c(C(N)=O)ccc32)c(C(=O)O)c1 [Example 33, 6,6′-(Ethane-1,2-diylbis(5-carbamoyl-4-methoxy-1H-benzo[d]imidazole-1,2-diyl))bis(3-ethylbenzoic acid)] | 1.17 °C | 107 µM | 
COc1c(C(N)=O)ccc2c1nc(-c1c(F)cc(Cl)cc1C(=O)O)n2CCn1c(-c2c(F)cc(Cl)cc2C(=O)O)nc2c(OC)c(C(N)=O)ccc21 [Example 11, 2,2′-(ethane-1,2-diylbis(5-carbamoyl-4-methoxy-1H-benzo[d]imidazole-1,2-diyl))bis(5-chloro-3-fluorobenzoic acid)] | 10.6 °C | 1.08 µM | 
COc1c(C(N)=O)ccc2c1nc(-c1cc(F)c(F)cc1C(=O)O)n2CCn1c(-c2cc(F)c(F)cc2C(=O)O)nc2c(OC)c(C(N)=O)ccc21 [Example 15, 6,6′-(Ethane-1,2-diylbis(5-carbamoyl-4-methoxy-1H-benzo[d]imidazole-1,2-diyl))bis(3,4-difluorobenzoic acid)] |  | 1000 µM | -0.91 °C
COc1c(C(N)=O)ccc2c1nc(-c1c(F)cc(Cl)cc1Br)n2CCn1c(-c2c(F)cc(Cl)cc2Br)nc2c(OC)c(C(N)=O)ccc21 [Example 45, 1,1′-(Ethane-1,2-diyl)bis(2-(2-bromo-4-chloro-6-fluorophenyl)-4-methoxy-1H-benzo[d]imidazole-5-carboxamide)] | -0.34 °C | 29.6 µM | 
COc1c(C(N)=O)ccc2c1nc(-c1ccc(C)cc1C(=O)O)n2CCn1c(-c2ccc(C)cc2C(=O)O)nc2c(OC)c(C(N)=O)ccc21 [Example 25, 6,6′-(Ethane-1,2-diylbis(5-carbamoyl-4-methoxy-1H-benzo[d]imidazole-1,2-diyl))bis(3-methylbenzoic acid)] | -18.4 °C | 250 µM | 
COc1c(C(N)=O)ccc2c1nc(-c1ccc(Cl)cc1C(=O)O)n2CCn1c(-c2ccc(Cl)cc2C(=O)O)nc2c(OC)c(C(N)=O)ccc21 [Example 1, 6,6′-(Ethane-1,2-diylbis(5-carbamoyl-4-methoxy-1H-benzo[d]imidazole-1,2-diyl))bis(3-chlorobenzoic acid)] | 5.07 °C | 200 µM | 
COc1c(C(N)=O)ccc2c1nc(-c1c(F)cc(Cl)cc1-c1n[nH]c(=O)o1)n2CCn1c(-c2c(F)cc(Cl)cc2-c2n[nH]c(=O)o2)nc2c(OC)c(C(N)=O)ccc21 [Example 50, 1,1′-(Ethane-1,2-diyl)bis(2-(4-chloro-2-fluoro-6-(5-oxo-4,5-dihydro-1,3,4-oxadiazol-2-yl)phenyl)-4-methoxy-1H-benzo[d]imidazole-5-carboxamide)] | 12.5 °C | 0.359 µM | 
COc1c(C(N)=O)ccc2c1nc(-c1c(F)cc(F)cc1-c1n[nH]c(=O)o1)n2CCn1c(-c2c(F)cc(F)cc2-c2n[nH]c(=O)o2)nc2c(OC)c(C(N)=O)ccc21 [Example 44, 1,1′-(Ethane-1,2-diyl)bis(2-(2,4-difluoro-6-(5-oxo-4,5-dihydro-1,3,4-oxadiazol-2-yl)phenyl)-4-methoxy-1H-benzo[d]imidazole-5-carboxamide)] | 0.88 °C | 11.1 µM | 
COc1c(C(N)=O)ccc2c1nc(-c1ccc(Cl)cc1-c1nn[nH]n1)n2CCn1c(-c2ccc(Cl)cc2-c2nn[nH]n2)nc2c(OC)c(C(N)=O)ccc21 [Example 9, 1,1′-(Ethane-1,2-diyl)bis(2-(4-chloro-2-(2H-tetrazol-5-yl)phenyl)-4-methoxy-1H-benzo[d]imidazole-5-carboxamide)] | 5.06 °C | 40 µM | 
